Experimental data taken from ChEMBL document CHEMBL1122731, “Potential synthetic codeine substitutes: (-)-3-O-aryl-N-methylmorphinans” (J Med Chem, 1984).

How the values were obtained:
Format in all cases: functional
Mus musculus [1] = assay: Compound was tested for analgesic activity by tail-flick test after subcutaneous administration in mice; conditions: sc
Mus musculus [2] = assay: Compound was tested for analgesic activity by writhing test after subcutaneous administration in mice; conditions: sc
Mus musculus [3] = assay: Compound was tested for analgesic activity by tail-flick test after peroral administration in mice; conditions: po
Mus musculus [4] = assay: Compound was tested for analgesic activity by writhing test after peroral administration in mice; conditions: po

| Compound | ED50 (Mus musculus [1]) [mg/kg] | ED50 (Mus musculus [2]) [mg/kg] | ED50 (Mus musculus [3]) [mg/kg] | ED50 (Mus musculus [4]) [mg/kg] |
| --- | --- | --- | --- | --- |
| CN1CC[C@]23CCCC[C@H]2[C@H]1Cc1ccc(Oc2ccc(O)cc2)cc13.Cl | 6.69 | 1.3 | – | – |
| CN1CC[C@]23CCCC[C@H]2[C@H]1Cc1ccc(Oc2ccccc2F)cc13.O=C(O)C(=O)O | 23.3 | 3 | – | – |
| CN1CC[C@]23CCCC[C@H]2[C@H]1Cc1ccc(O)cc13.O=C(O)C(O)C(O)C(=O)O | 1.21 | 0.11 | 8.5 | 1.4 |
| COc1ccc2c3c1O[C@H]1[C@@H](O)C=C[C@H]4[C@@H](C2)N(C)CC[C@@]341.COc1ccc2c3c1O[C@H]1[C@@H](O)C=C[C@H]4[C@@H](C2)N(C)CC[C@@]341.O.O=P(O)(O)O.O=P(O)(O)O [CODEINE PHOSPHATE] | – | 2.3 | 119 | 24 |
| CN1CC[C@]23CCCC[C@H]2[C@H]1Cc1ccc(Oc2ccc(F)cc2)cc13 | 37.3 | 1 | – | – |
| CN1CC[C@]23c4c5ccc(O)c4O[C@H]2[C@@H](O)C=C[C@H]3[C@H]1C5.CN1CC[C@]23c4c5ccc(O)c4O[C@H]2[C@@H](O)C=C[C@H]3[C@H]1C5.O=S(=O)(O)O | – | 0.46 | 31.2 | – |
| Cc1ccc(Oc2ccc3c(c2)[C@@]24CCCC[C@H]2[C@@H](C3)N(C)CC4)cc1.Cl | – | 23 | – | – |
| CN1CC[C@]23CCCC[C@H]2[C@H]1Cc1ccc(Oc2ccccc2)cc13.O=C(O)C(O)C(O)C(=O)O | 19.7 | 1.25 | 51.7 | 2.3 |
| CN1CC[C@]23CCCC[C@H]2[C@H]1Cc1ccc(Oc2ccccn2)cc13.O=C(O)C(O)C(O)C(=O)O | 10.1 | 1.1 | – | – |
| CCO.CN1CC[C@]23CCCC[C@H]2[C@H]1Cc1ccc(Oc2ccccc2O)cc13.O=C(O)C(O)C(O)C(=O)O | 11.4 | 1.8 | – | – |
| CN1CC[C@]23CCCC[C@H]2[C@H]1Cc1ccc(Oc2cccc(F)c2)cc13.O.O=C(O)C(O)C(O)C(=O)O | 71 | 1.85 | – | – |
| COc1ccccc1Oc1ccc2c(c1)[C@@]13CCCC[C@H]1[C@@H](C2)N(C)CC3 | 24.4 | 0.49 | – | – |
| Br.COc1ccc2c(c1)[C@@]13CCCCC1[C@@H](C2)N(C)CC3 (some centres not stated) [LEVOMETHORPHAN HYDROBROMIDE] | – | 0.64 | 5.27 | 1.5 |
| CCO.CN1CC[C@]23CCCC[C@H]2[C@H]1Cc1ccc(Oc2cccc(O)c2)cc13.O=C(O)C(O)C(O)C(=O)O | 80.1 | 9 | – | – |
| COc1ccc(Oc2ccc3c(c2)[C@@]24CCCC[C@H]2[C@@H](C3)N(C)CC4)cc1 | 25 | 2.1 | – | – |
| COc1cccc(Oc2ccc3c(c2)[C@@]24CCCC[C@H]2[C@@H](C3)N(C)CC4)c1 | 39.7 | 2.5 | – | – |
